Measured values as given in patent US7781428B2 (Pfizer Inc., priority 2006, dated 2010).
Structures can show the parent of a compound that is named as a salt.

Target: T1, mineralocorticoid receptor (MR) (Homo sapiens, UniProt P08235)
T1 construct: expressed in transfected cells; host or cells: Huh7 (human liver cells)
T1 sequence (P08235 726-964 limits assumed): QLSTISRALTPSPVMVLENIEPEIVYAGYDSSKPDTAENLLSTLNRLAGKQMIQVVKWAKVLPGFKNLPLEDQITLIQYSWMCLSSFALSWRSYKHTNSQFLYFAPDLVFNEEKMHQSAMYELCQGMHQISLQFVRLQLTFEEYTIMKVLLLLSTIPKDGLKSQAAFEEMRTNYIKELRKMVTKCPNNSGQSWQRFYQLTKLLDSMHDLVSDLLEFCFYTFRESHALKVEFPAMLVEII
Test: Cell-based Gal4 response element-controlled luciferase reporter assay (MR antagonism)
Settings: Huh7 human liver cells transfected with Gal4 DBD-MR LBD fusion and luciferase reporter; block of agonist-induced activation; overnight incubation
Text: Method 1: Cell-based Gal4 Response Element-controlled Luciferase Reporter Assay
An in vitro assay can be used to evaluate mineralocorticoid receptor (MR) antagonism by a test compound. […] An agonist of the receptor can bind to and activate the receptor LBD, which activate the expression of the Gal4 response element containing luciferase reporter gene. Antagonists can compete for binding to the receptor LBDs and decrease the transcription activity of the reporter gene. Measurement of luciferase activity allows quantitative determinations of the reporter transcription in the presence of either agonists or agonists and antagonists in combination. β-galactosidase activity, which is unaffected by ligand, is used to normalize the transfection efficiency in the cell population.
Huh7 cells were plated in RPMI1640+10% fetal bovine serum (Invitrogen Corporation, San Diego, Calif.), at 10,000 cells per well in 96-well tissue culture dishes for approximately 24 hours. Cells were then transfected using FuGENE™ 6 Transfection Reagent according to manufacturers' instructions (Roche Molecular Biochemicals, Indianapolis, Ind.). Approximately 20 hours after transfection, media were removed. Cells were washed once with PBS and treated (n=6/group) with agonist for each receptor (all chemicals from Sigma, St. Louis, Mo.), and with compounds. Agonist concentrations represent 70-80% of full activation of each receptor.
Compounds were dissolved in DMSO at 10 mM and diluted to final concentrations in phenol red-free media that contained 10% charcoal- and dextran-stripped serum (Life Technologies, Gathersburg, Md.). Following overnight incubation (18-20 hours) with compounds, the medium was removed and replaced with 100 μL per well of PBS and 100 μL of Steady-Glo™ lysis buffer with luciferase substrate (Promega Corporation, Madison, Wis.). After a 30-minute incubation to completely lyse the cells, 100 μL of the lysate was transferred to a black, Dynatech Microfluor assay plates (Dynex Corporation, Chantilly, Va.) to measure luciferase activity. The plate was sealed with TopSeal self-adhesive film, dark-adapted for 5 minutes, then counted in a TopCount Plate Reader (Packard Instrument Company, Meriden, Conn.) in single photon counting mode. The remaining lysate was used for determination of β-galactosidase activity. In a clear 96-well assay plate, 100 μL of cell lysate was added to 100 μL β-galactosidase assay buffer per well. The assay buffer consisted of 60 mM Na2HPO4, 40 mM NaH2PO4, 10 mM KCl, 1 mM MgSO4, 50 mM β-mercaptoethanol, and 2.5 mg/mL ONPG, the latter two reagents were added just prior to assay (all chemicals from Sigma). The reaction was allowed to proceed until a distinct yellow color developed. Reactions were stopped by the addition of 100 μL per well 1 M Na2CO3 and plates were read at 420 nm in Victor-2 (Perkin Elmer Life Sciences, Boston, Mass.). Values (relative luciferase activity) for each sample were expressed as a ratio of luciferase activity to OD420β-galactosidase activity measured in arbitrary units for each well. […] “b” is the slope, “c” is the IC50 or EC50. “x” is the concentration of the compound and “y” the activity at that concentration.

| SMILES | IC50 |
| --- | --- |
| C[S+]([O-])CCNC(=O)c1ccc2c(c1)CC[C@H]1C2=NN(c2ccc(C#N)c(Cl)c2)[C@H]1C1CCOCC1 (mixture of isomers) [Example 99] | 14 nM |
| N#Cc1ccc(N2N=C3c4ccc(O)cc4CC[C@H]3[C@H]2c2ccc(F)cc2)cc1C(F)(F)F [Example 85, 4-((3S,3aS)-3-(4-fluorophenyl)-7-hydroxy-3,3a,4,5-tetrahydrobenzo[g]indazol-2-yl)-2-(trifluoromethyl)benzonitrile] | > 1000 nM |
| N#Cc1ccc(N2N=C3c4ccc(C(=O)NCC(=O)NCC(=O)O)cc4CC[C@H]3[C@@H]2c2ccc(F)cc2)cc1Cl (racemic) [Example 108, (±)-2-(2-((3RS,3aSR)-2-(3-chloro-4-cyanophenyl)-3-(4-fluorophenyl)-3,3a,4,5-tetrahydro-2H-benzo[g]indazole-7-carboxamido)acetamido)acetic acid] | > 1000 nM |
| N#Cc1ccc(N2N=C3c4ccc(C(=O)NCCC(N)=O)cc4CC[C@@H]3[C@@H]2c2ccc(F)cc2)cc1Cl (racemic) [Example 102, (±)-(3RS,3aRS)—N-(3-amino-3-oxopropyl)-2-(3-chloro-4-cyanophenyl)-3-(4-fluorophenyl)-3,3a,4,5-tetrahydro-2H-benzo[g]indazole-7-carboxamide] | 35 nM |
| Cc1cc(N2N=C3c4ccc(C(=O)O)cc4CC[C@@H]3[C@@H]2C2CCCC2)ccc1C#N (single isomer, unassigned) [Example 22] | 4 nM |
| N#Cc1ccc(N2N=C3c4ccc(C(=O)O)cc4OCC3C2c2ccc(F)cc2)cc1C(F)(F)F (racemic) [Example 54, 2-(4-cyano-3-(trifluoromethyl)phenyl)-3-(4-fluorophenyl)-2,3,3a,4-tetrahydrochromeno[4,3-c]pyrazole-7-carboxylic acid] | 973 nM |
| O=C(O)c1ccc2c(c1)CCC1C2=NN(c2ccc3c(c2)CCNC3=O)C1c1ccc(F)cc1 (racemic) [Example 13, 3-(4-fluorophenyl)-2-(1-oxo-1,2,3,4-tetrahydroisoquinolin-6-yl)-3,3a,4,5-tetrahydro-2H-benzo[g]indazole-7-carboxylic acid] | 535 nM |
| Cc1cc(N2N=C3c4ccc(O)cc4CC[C@@H]3[C@@H]2c2ccc(F)cc2)ccc1C#N [Example 81, 4-((3R,3aR)-3-(4-fluorophenyl)-7-hydroxy-3,3a,4,5-tetrahydrobenzo[g]indazol-2-yl)-2-methylbenzonitrile] | 35 nM |
| Cc1cc(N2N=C3c4ccc(C(=O)O)cc4OCC3C2C(C)C)ccc1C#N (centres unmarked) [Example 73, 2-(4-cyano-3-methylphenyl)-3-isopropyl-2,3,3a,4-tetrahydrochromeno[4,3-c]pyrazole-7-carboxylic acid] | 167 nM |
| Cc1cc(N2N=C3c4ccc(C(=O)O)cc4CC[C@@H]3[C@@H]2c2ccc(F)cc2)ccc1C#N [Example 7, (3R,3aR)-2-(4-cyano-3-methylphenyl)-3-(4-fluorophenyl)-3,3a,4,5-tetrahydro-2H-benzo[g]indazole-7-carboxylic acid] | 17.2 nM |
| Cc1cc(N2N=C3c4ccc(C(=O)O)cc4OC[C@@H]3[C@@H]2C2CCCC2)ccc1C#N (single isomer, unassigned) [Example 62] | 26 nM |
| N#Cc1ccc(N2N=C3c4ccc(C(=O)NCC(=O)NCC(=O)O)cc4CC[C@@H]3[C@@H]2c2ccc(F)cc2)cc1Cl (racemic) [Example 110, (±)-2-(2-((3RS,3aRS)-2-(3-chloro-4-cyanophenyl)-3-(4-fluorophenyl)-3,3a,4,5-tetrahydro-2H-benzo[g]indazole-7-carboxamido)acetamido)acetic acid] | > 1000 nM |
| N#Cc1ccc(N2N=C3c4ccc(C(=O)O)cc4CCC3C2C2=CCCC2)cc1 (racemic) [Example 50, 2-(4-cyanophenyl)-3-cyclopent-1-en-1-yl-3,3a,4,5-tetrahydro-2H-benzo[g]indazole-7-carboxylic acid] | 205 nM |
| N#Cc1ccc(N2N=C3c4ccc(C(=O)O)cc4OCC3C2C2CC2)cc1Cl (racemic) [Example 76, 2-(3-chloro-4-cyanophenyl)-3-cyclopropyl-2,3,3a,4-tetrahydrochromeno[4,3-c]pyrazole-7-carboxylic acid] | > 1000 nM |
| N#Cc1ccc(N2N=C3c4ccc(C(=O)O)cc4CCC3C2C2CCOC2)cc1Cl (racemic) [Example 34, 2-(3-chloro-4-cyanophenyl)-3-((R)-tetrahydrofuran-3-yl)-3,3a,4,5-tetrahydro-2H-benzo[g]indazole-7-carboxylic acid and 2-(3-chloro-4-cyanophenyl)-3-((S)-tetrahydrofuran-3-yl)-3,3a,4,5-tetrahydro-2H-benzo[g]indazole-7-carboxylic acid] | 720 nM |
| N#Cc1ccc(N2N=C3c4ccc(C(=O)O)cc4CC[C@@H]3[C@@H]2c2ccc(F)cc2)cc1 [Example 11, (3R,3aR)-2-(4-cyanophenyl)-3-(4-fluorophenyl)-3,3a,4,5-tetrahydro-2H-benzo[g]indazole-7-carboxylic acid] | 205 nM |
| N#Cc1ccc(N2N=C3c4ccc(C(=O)O)cc4CCC3C2c2ccc(F)cc2)cn1 (racemic) [Example 14, 2-(6-cyanopyridin-3-yl)-3-(4-fluorophenyl)-3,3a,4,5-tetrahydro-2H-benzo[g]indazole-7-carboxylic acid trifluoroacetate] | 929 nM |
| N#Cc1ccc(N2N=C3c4ccc(C(=O)NCCS(N)(=O)=O)cc4CC[C@@H]3[C@@H]2C2CCOCC2)cc1Cl (racemic) [Example 105, (±)-(3SR,3aRS)—N-[2-(aminosulfonyl)ethyl]-2-(3-chloro-4-cyanophenyl)-3-(tetrahydro-2H-pyran-4-yl)-3,3a,4,5-tetrahydro-2H-benzo[g]indazole-7-carboxamide] | 141 nM |
| N#Cc1ccc(N2N=C3c4ccc(C(=O)O)cc4CCC3C2c2ccc(F)cc2)cc1C(F)(F)F (racemic) [Example 9, 2-[4-cyano-3-(trifluoromethyl)phenyl]-3-(4-fluorophenyl)-3,3a,4,5-tetrahydro-2H-benzo[g]indazole-7-carboxylic acid] | 170 nM |
| Cc1cc(N2N=C3c4ccc(C(=O)O)cc4CCC3C2C2=CCCC2)ccc1C#N (racemic) [Example 51, 2-(4-cyano-3-methylphenyl)-3-cyclopentenyl-3,3a,4,5-tetrahydro-2H-benzo[g]indazole-7-carboxylic acid] | 7 nM |
| Cc1cc(N2N=C3c4ccc(C(=O)O)cc4OC[C@H]3[C@H]2C2CCCC2)ccc1C#N (single isomer, unassigned) [Example 63] | > 1000 nM |
| N#Cc1ccc(N2N=C3c4ccc(CC(=O)O)cc4OCC3C2c2ccc(F)cc2)cc1 (racemic) [Example 79, (±)-(3RS,3aRS)-[2-(4-cyanophenyl)-3-(4-fluorophenyl)-2,3,3a,4-tetrahydrochromeno[4,3-c]pyrazol-7-yl]acetic acid] | 6920 nM |
| Cc1cc(N2N=C3c4ccc(C(=O)O)cc4OCC3C2C2CCCC2)ccc1C#N (racemic) [Example 61, 2-(4-cyano-3-methylphenyl)-3-cyclopentyl-2,3,3a,4-tetrahydrochromeno[4,3-c]pyrazole-7-carboxylic acid] | 39 nM |
| N#Cc1ccc(N2N=C3c4ccc(C(=O)O)cc4CC[C@@H]3[C@@H]2c2ccc(F)cc2)cc1Cl [Example 3, (3R,3aR)-2-(3-chloro-4-cyanophenyl)-3-(4-fluorophenyl)-3,3a,4,5-tetrahydro-2H-benzo[g]indazole-7-carboxylic acid] | 40.7 nM |
| N#Cc1ccc(N2N=C3c4ccc(C(=O)O)cc4OCC3C2C2CCCC2)cc1C(F)(F)F (racemic) [Example 69, (±)-(3RS,3aRS)-2-[4-cyano-3-(trifluoromethyl)phenyl]-3-cyclopentyl-2,3,3a,4-tetrahydrochromeno[4,3-c]pyrazole-7-carboxylic acid] | 130 nM |
| Cc1cc(N2N=C3c4ccc(C(=O)O)cc4CC[C@H]3[C@H]2C2CCCC2)ccc1C#N (single isomer, unassigned) [Example 23] | > 500 nM |
